# Experimental data reported in patent publication US8802678B2, “Carbonylated (aza) cyclohexanes as dopamine D3 receptor ligands” (Bioprojet, priority 2006, dated 2014).
# Counter-ions that a name gives are not always drawn.
row,melting point [°C],Structure (SMILES)
1,159,"N#C[C@@H]1CC1C(=O)N[C@H]1CC[C@H](CCN2CCN(c3cccc(C(F)(F)F)c3)CC2)CC1 (stereo in doubt) [Example 324, 2-Cyano-cyclopropanecarboxylic acid (4-{2-[4-(3-trifluoromethylphenyl)piperazin-1-yl]ethyl}cyclohexyl) amide]"
2,176,"N#CCC(=O)N[C@H]1CC[C@H](CCN2CCN(c3ccc(F)c(Cl)c3)CC2)CC1 [Example 594, N-(4-{2-[4-(3-Chloro-4-fluorophenyl)piperazin-1-yl]ethyl}cyclohexyl)-2-cyanoacetamide]"
3,227,"COc1ccc(N2CCN(CC[C@H]3CC[C@H](NC(=O)CC#N)CC3)CC2)cc1 [Example 573, 2-Cyano-N-(4-{2-[4-(4-methoxyphenyl)piperazin-1-yl]ethyl}cyclohexyl)acetamide]"
4,281,"CC(=O)CN1CCC(CCN2CCN(c3cccc(Cl)c3Cl)CC2)CC1 (as salt: hydrochloride) [Example 737, 1-(4-{2-[4-(2,3-Dichlorophenyl)piperazin-1-yl]ethyl}piperidin-1-yl)propan-2-one, dihydrochloride]"
5,171,"COCCCC(=O)N[C@H]1CC[C@H](CCN2CCN(c3ccc(Cl)cc3Cl)CC2)CC1 [Example 761, N-(4-{2-[4-(2,4-Dichlorophenyl)piperazin-1-yl]ethyl}cyclohexyl)-4-methoxybutanamide]"
6,186,"N#CCCC(=O)N[C@H]1CC[C@H](CCN2CCN(c3cccc(F)c3)CC2)CC1 [Example 412, 3-Cyano-N-(4-{2-[4-(3-fluorophenyl)piperazin-1-yl]ethyl}cyclohexyl)propanamide]"
7,103,"CC(=O)CN1CCC(CCN2CCN(c3ccc(C)c(Cl)c3)CC2)CC1 [Example 618, 1-(4-{2-[4-(3-Chloro-4-methylphenyl)piperazin-1-yl]ethyl}piperidin-1-yl)propan-2-one]"
8,215,"O=C(N[C@H]1CC[C@H](CCN2CCN(c3cccc(F)c3)CC2)CC1)C1CC=CC1 [Example 408, Cyclopent-3-enecarboxylic acid (4-{2-[4-(3-fluorophenyl)-piperazin-1-yl]ethyl}cyclohexyl) amide]"
9,177,"COCCCC(=O)N[C@H]1CC[C@H](CCN2CCN(c3cc(C(F)(F)F)ccc3F)CC2)CC1 [Example 616, N-(4-{2-[4-(2-Fluoro-5-trifluoromethylphenyl)piperazin-1-yl]ethyl}cyclohexyl)-4-methoxybutanamide]"
10,180 to 183,"Cc1c(Cl)cccc1N1CCN(CC[C@H]2CC[C@H](NC(=O)CCCC#N)CC2)CC1 [Example 258, N-(4-{2-[4-(3-Chloro-2-methylphenyl)piperazin-1-yl]ethyl}cyclohexyl)-4-cyanobutanamide]"
11,119,"CC(C)C(O)c1cccc(N2CCN(CC[C@H]3CC[C@H](NC(=O)CC#N)CC3)CC2)c1 (stereo partly shown) [Example 575, 2-cyano-N-[4-(2-{4-[3-(1-hydroxy-2-methylpropyl)phenyl]piperazin-1-yl}ethyl)cyclohexyl]acetamide]"
12,168,"N#CCCCC(=O)N[C@H]1CC[C@H](CCN2CCN(c3cc(C(F)(F)F)ccc3Cl)CC2)CC1 [Example 404, N-(4-{2-[4-(2-Chloro-5-trifluoromethylphenyl)piperazin-1-yl]ethyl}cyclohexyl)-4-cyanobutanamide]"
13,195,O=C(N[C@H]1CC[C@H](CCN2CCN(c3cccc(F)c3)CC2)CC1)C1=CCCCC1 [Example 394]
14,206,"N#CCC(=O)N[C@H]1CC[C@H](CCN2CCc3cc(C#N)ccc3C2)CC1 [Example 559, 2-Cyano-N-{4-[2-(6-cyano-3,4-dihydro-1H-isoquinolin-2-yl)ethyl]cyclohexyl}acetamide]"
15,158,"N#CCCCC(=O)N[C@H]1CC[C@H](CCN2CCN(c3ccc(F)c(C#N)c3)CC2)CC1 [Example 662, 4-Cyano-N-(4-{2-[4-(3-cyano-4-fluorophenyl)piperazin-1-yl]ethyl}cyclohexyl)butanamide]"
16,185,"N#CCC(=O)N[C@H]1CC[C@H](CCN2CCN(c3cccc(-c4ncco4)c3)CC2)CC1 [Example 530, 2-Cyano-N-(4-{2-[4-(3-oxazol-2-ylphenyl)piperazin-1-yl]ethyl}cyclohexyl)acetamide]"
17,143,"Cc1cccc(C)c1N1CCN(CC[C@H]2CC[C@H](NC(=O)CC#N)CC2)CC1 [Example 267, 2-Cyano-N-(4-{2-[4-(2,6-dimethylphenyl)piperazin-1-yl]ethyl}cyclohexyl)acetamide]"
18,216,"O=C(N[C@H]1CC[C@H](CCN2CCN(c3ccc(Cl)cc3F)CC2)CC1)C1=CCCC1 [Example 517, Cyclopent-1-enecarboxylic acid (4-{2-[4-(4-chloro-2-fluorophenyl)piperazin-1-yl]ethyl}cyclohexyl) amide]"
19,135,"CNC(=O)C=C1CCC(CCN2CCN(c3ccccc3F)CC2)CC1 (stereo not shown) [Example 299, 2-(4-{2-[4-(2-Fluorophenyl)piperazin-1-yl]ethyl}cyclohexylidene)-N-methylacetamide]"
20,175,"Cc1cc(C)cc(N2CCN(CC[C@H]3CC[C@H](NC(=O)CCC#N)CC3)CC2)c1 [Example 716, 3-Cyano-N-(4-{2-[4-(3,5-dimethylphenyl)piperazin-1-yl]ethyl}cyclohexyl)propanamide]"
21,152,"N#CCCCC(=O)N[C@H]1CC[C@H](CCN2CCN(c3cc(Cl)cc(C(F)(F)F)c3)CC2)CC1 [Example 529, N-(4-{2-[4-(3-Chloro-5-trifluoromethylphenyl)piperazin-1-yl]ethyl}cyclohexyl)-4-cyanobutanamide]"
22,108,"CC(=O)CN1CCC(CCN2CCN(c3ccc(F)c(C#N)c3F)CC2)CC1 [Example 690, 2,6-Difluoro-3-(4-{2-[1-(2-oxo-propyl)piperidin-4-yl]ethyl}piperazin-1-yl)benzonitrile]"
23,155,"N#CCCCC(=O)N[C@H]1CC[C@H](CCN2CCN(c3cccc(C(F)F)c3)CC2)CC1 [Example 364, 4-Cyano-N-(4-{2-[4-(3-difluoromethylphenyl)piperazin-1-yl]ethyl}cyclohexyl)butanamide]"

# More lines, now with the values behind:
row,Structure (SMILES),melting point [°C]
1,"CC(C)(C)c1cc(N2CCN(CC[C@H]3CC[C@H](NC(=O)CC#N)CC3)CC2)cc(C(C)(C)C)c1 [Example 232, 2-Cyano-N-(4-{2-[4-(3,5-di-tert-butylphenyl)piperazin-1-yl]ethyl}cyclohexyl)acetamide]",168
2,"CC(C)OCC(=O)N[C@H]1CC[C@H](CCN2CCN(c3cccc(C(F)(F)F)c3C#N)CC2)CC1 [Example 101, N-(4-{2-[4-(2-Cyano-3-trifluoromethylphenyl)piperazin-1-yl]ethyl}cyclohexyl)-2-isopropoxyacetamide]",144
3,CC(=O)CN1CCC(CCN2CCN(c3ccc(F)c(C)c3)CC2)CC1.Cl.Cl,258
4,CC(=O)CN1CCC(CCN2CCN(c3ccc(Cl)cc3Cl)CC2)CC1.Cl.Cl,283
5,O=C(N[C@H]1CC[C@H](CCN2CC=C(c3ccccc3)CC2)CC1)C1=CCCC1,202
6,"N#CCC(=O)N[C@H]1CC[C@H](CCN2CCN(c3cccc(C#N)c3)CC2)CC1 [Example 90, 2-Cyano-N-(4-{2-[4-(3-cyanophenyl)piperazin-1-yl]ethyl}cyclohexyl)acetamide trans/cis 75/25]",188
7,CCOCC(=O)N[C@H]1CC[C@H](CCN2CC=C(c3cccc(C(F)(F)F)c3)CC2)CC1,75
8,"CSc1cccc(N2CCN(CC[C@H]3CC[C@H](NC(=O)CCCC#N)CC3)CC2)c1 [Example 238, 4-Cyano-N-(4-{2-[4-(3-methylsulfanylphenyl)piperazin-1-yl]ethyl}cyclohexyl)butanamide]",127
9,"Cc1cccc(N2CCN(CC[C@H]3CC[C@H](NC(=O)CC(F)(F)F)CC3)CC2)c1 [Example 235, 3,3,3-Trifluoro-N-{4-[2-(4-m-tolylpiperazin-1-yl)ethyl]cyclohexyl}propanamide]",170
10,CC(=O)CN1CCC(CCN2CCN(c3ccc(C(F)(F)F)cc3F)CC2)CC1.Cl.Cl,278 to 279
11,"COc1ccc(Cl)c(N2CCN(CC[C@H]3CC[C@H](NC(=O)CC#N)CC3)CC2)c1 [Example 193, N-(4-{2-[4-(2-Chloro-5-methoxyphenyl)piperazin-1-yl]ethyl}cyclohexyl)-2-cyanoacetamide]",165
12,"N#CCC(=O)N[C@H]1CC[C@H](CCN2CCN(c3cc(Cl)ccc3Cl)CC2)CC1 [Example 228, 2-Cyano-N-(4-{2-[4-(2,5-dichlorophenyl)piperazin-1-yl]ethyl}cyclohexyl)acetamide]",182 to 184
13,CC(=O)CN1CCC(CCN2CCN(c3cccc(C)c3C#N)CC2)CC1.Cl.Cl,215
14,"COCC(=O)N[C@H]1CC[C@H](CCN2CCN(c3cccc(C(F)(F)F)c3C#N)CC2)CC1 [Example 119, N-(4-{2-[4-(2-Cyano-3-trifluoromethylphenyl)piperazin-1-yl]ethyl}cyclohexyl)-2-methoxyacetamide]",172
15,CC(=O)CN1CCC(CCN2CCN(c3ccc(F)cc3)CC2)CC1.Cl.Cl,270
16,"CCc1cccc(N2CCN(CC[C@H]3CC[C@H](NC(=O)CC#N)CC3)CC2)c1 [Example 149, 2-Cyano-N-(4-{2-[4-(3-ethylphenyl)piperazin-1-yl]ethyl}cyclohexyl)acetamide]",142
17,CC(=O)CN1CCC(CCN2CCN(c3cccc4cccnc34)CC2)CC1.Cl.Cl,270
18,"CCOCC(=O)N[C@H]1CC[C@H](CCN2CCC(c3cccc(C(F)(F)F)c3)CC2)CC1 [Example 83, 2-Ethoxy-N-(4-{2-[4-(3-trifluoromethylphenyl)piperidin-1-yl]ethyl}cyclohexyl)acetamide]",84
19,CCOCC(=O)N[C@H]1CC[C@H](CCN2CC=C(c3ccc(Cl)cc3)CC2)CC1,149
20,"N#CCC(=O)N[C@H]1CC[C@H](CCN2CCC(c3cccc(C(F)(F)F)c3)CC2)CC1 [Example 218, 2-Cyano-N-(4-{2-[4-(3-trifluoromethylphenyl)piperidin-1-yl]ethyl}cyclohexyl)acetamide]",129
